Test results: PubChem BioAssay (NCI)
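Interpolation was linear, between the two tested concentrations surrounding the appropriate level; five concentrations were tested over 48 hours in 96-well plates. The concentration for 50% growth inhibition is given as GI50. The concentration for full growth arrest is given as TGI.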

Assays:
Assay in all cases: NCI anticancer screen, dose series, 48 h
786-0 renal = system: 786-0 renal
A498 renal = system: A498 renal
A549 NSCLC = system: A549 NSCLC
ACHN renal = system: ACHN renal
BT-549 breast = system: BT-549 breast
CAKI-1 renal = system: CAKI-1 renal
COLO 205 colon = system: COLO 205 colon
DU-145 prostate = system: DU-145 prostate
HCC-2998 colon = system: HCC-2998 colon
HCT-116 colon = system: HCT-116 colon
HCT-15 colon = system: HCT-15 colon
HL-60(TB) leukemia = system: HL-60(TB) leukemia
HOP-62 NSCLC = system: HOP-62 NSCLC
HOP-92 NSCLC = system: HOP-92 NSCLC
HS 578T breast = system: HS 578T breast
HT29 colon = system: HT29 colon
IGROV1 ovarian = system: IGROV1 ovarian
K-562 leukemia = system: K-562 leukemia
KM12 colon = system: KM12 colon
LOX IMVI melanoma = system: LOX IMVI melanoma
M14 melanoma = system: M14 melanoma
MALME-3M melanoma = system: MALME-3M melanoma
MCF7 breast = system: MCF7 breast
MDA-MB-231 breast = system: MDA-MB-231 breast
MDA-MB-435 = system: MDA-MB-435
MOLT-4 leukemia = system: MOLT-4 leukemia
NCI-H226 lung = system: NCI-H226 lung
NCI-H23 lung = system: NCI-H23 lung
NCI-H460 lung = system: NCI-H460 lung
NCI-H522 lung = system: NCI-H522 lung
NCI/ADR-RES ovarian = system: NCI/ADR-RES ovarian
OVCAR-3 ovarian = system: OVCAR-3 ovarian
OVCAR-4 ovarian = system: OVCAR-4 ovarian
OVCAR-5 ovarian = system: OVCAR-5 ovarian
OVCAR-8 ovarian = system: OVCAR-8 ovarian
PC-3 prostate = system: PC-3 prostate
RPMI-8226 leukemia = system: RPMI-8226 leukemia
RXF 393 renal = system: RXF 393 renal
SF-268 CNS = system: SF-268 CNS
SF-295 CNS = system: SF-295 CNS
SF-539 CNS = system: SF-539 CNS
SK-MEL-2 melanoma = system: SK-MEL-2 melanoma
SK-MEL-28 melanoma = system: SK-MEL-28 melanoma
SK-MEL-5 melanoma = system: SK-MEL-5 melanoma
SK-OV-3 ovarian = system: SK-OV-3 ovarian
SN12C renal = system: SN12C renal
SNB-19 CNS = system: SNB-19 CNS
SNB-75 CNS = system: SNB-75 CNS
SR leukemia = system: SR leukemia
SW-620 colon = system: SW-620 colon
T-47D breast = system: T-47D breast
TK-10 renal = system: TK-10 renal
U251 CNS = system: U251 CNS
UACC-257 melanoma = system: UACC-257 melanoma
UACC-62 melanoma = system: UACC-62 melanoma
UO-31 renal = system: UO-31 renal

Compound: COc1ccc(C2C=C(c3ccc(OC)c(OC)c3)N=C3SC=CN32)c(Br)c1 (configuration not stated)
- GI50 (786-0 renal): 2.72 µM
- TGI (786-0 renal): 8.22 µM
- GI50 (A498 renal): 3.47 µM
- TGI (A498 renal): 17.1 µM
- GI50 (A549 NSCLC): 2.4 µM
- TGI (A549 NSCLC): 7.86 µM
- GI50 (ACHN renal): 2 µM
- TGI (ACHN renal): 4.33 µM
- GI50 (BT-549 breast): 2.1 µM
- TGI (BT-549 breast): 5.71 µM
- GI50 (CAKI-1 renal): 13.4 µM
- TGI (CAKI-1 renal): 33.8 µM
- GI50 (COLO 205 colon): 4.56 µM
- TGI (COLO 205 colon): 16.4 µM
- GI50 (DU-145 prostate): 3.44 µM
- TGI (DU-145 prostate): 11.6 µM
- GI50 (HCC-2998 colon): 2.02 µM
- TGI (HCC-2998 colon): 3.71 µM
- GI50 (HCT-116 colon): 1.52 µM
- TGI (HCT-116 colon): 3.25 µM
- GI50 (HCT-15 colon): 1.76 µM
- TGI (HCT-15 colon): 5.13 µM
- GI50 (HL-60(TB) leukemia): 3.06 µM
- TGI (HL-60(TB) leukemia): 23 µM
- GI50 (HOP-62 NSCLC): 3.16 µM
- TGI (HOP-62 NSCLC): 11.1 µM
- GI50 (HOP-92 NSCLC): 8.66 µM
- TGI (HOP-92 NSCLC): 38.3 µM
- GI50 (HS 578T breast): 3.41 µM
- TGI (HS 578T breast): > 100 µM
- GI50 (HT29 colon): 2.02 µM
- TGI (HT29 colon): 4.26 µM
- GI50 (IGROV1 ovarian): 2.25 µM
- TGI (IGROV1 ovarian): 5.51 µM
- GI50 (K-562 leukemia): 2.82 µM
- TGI (K-562 leukemia): > 100 µM
- GI50 (KM12 colon): 1.83 µM
- TGI (KM12 colon): 3.5 µM
- GI50 (LOX IMVI melanoma): 1.88 µM
- TGI (LOX IMVI melanoma): 3.74 µM
- GI50 (M14 melanoma): 2.23 µM
- TGI (M14 melanoma): 5.32 µM
- GI50 (MALME-3M melanoma): 13.5 µM
- TGI (MALME-3M melanoma): 32.6 µM
- GI50 (MCF7 breast): 0.807 µM
- TGI (MCF7 breast): 2.24 µM
- GI50 (MDA-MB-231 breast): 4.5 µM
- TGI (MDA-MB-231 breast): 21.3 µM
- GI50 (MDA-MB-435): 2.8 µM
- TGI (MDA-MB-435): 10.5 µM
- GI50 (MOLT-4 leukemia): 3.16 µM
- TGI (MOLT-4 leukemia): 30.6 µM
- GI50 (NCI-H226 lung): 2.84 µM
- TGI (NCI-H226 lung): 25.5 µM
- GI50 (NCI-H23 lung): 9.45 µM
- TGI (NCI-H23 lung): 27.3 µM
- GI50 (NCI-H460 lung): 5.15 µM
- TGI (NCI-H460 lung): 25.8 µM
- GI50 (NCI-H522 lung): 3.11 µM
- TGI (NCI-H522 lung): 11.7 µM
- GI50 (NCI/ADR-RES ovarian): 4.59 µM
- TGI (NCI/ADR-RES ovarian): 61.2 µM
- GI50 (OVCAR-3 ovarian): 2.24 µM
- TGI (OVCAR-3 ovarian): 4.91 µM
- GI50 (OVCAR-4 ovarian): 7.1 µM
- TGI (OVCAR-4 ovarian): 49.4 µM
- GI50 (OVCAR-5 ovarian): 6.44 µM
- TGI (OVCAR-5 ovarian): 28.4 µM
- GI50 (OVCAR-8 ovarian): 3.2 µM
- TGI (OVCAR-8 ovarian): 17.1 µM
- GI50 (PC-3 prostate): 3.88 µM
- TGI (PC-3 prostate): 41 µM
- GI50 (RPMI-8226 leukemia): 1.77 µM
- TGI (RPMI-8226 leukemia): 5.98 µM
- GI50 (RXF 393 renal): 2.08 µM
- TGI (RXF 393 renal): 3.98 µM
- GI50 (SF-268 CNS): 3.42 µM
- TGI (SF-268 CNS): 14.3 µM
- GI50 (SF-295 CNS): 11.5 µM
- TGI (SF-295 CNS): 26.9 µM
- GI50 (SF-539 CNS): 1.87 µM
- TGI (SF-539 CNS): 4.18 µM
- GI50 (SK-MEL-2 melanoma): 14.4 µM
- TGI (SK-MEL-2 melanoma): 29.8 µM
- GI50 (SK-MEL-28 melanoma): 2.3 µM
- TGI (SK-MEL-28 melanoma): 5.62 µM
- GI50 (SK-MEL-5 melanoma): 3.02 µM
- TGI (SK-MEL-5 melanoma): 10.1 µM
- GI50 (SK-OV-3 ovarian): 4.52 µM
- TGI (SK-OV-3 ovarian): 16.7 µM
- GI50 (SN12C renal): 4.77 µM
- TGI (SN12C renal): 21.2 µM
- GI50 (SNB-19 CNS): 7.3 µM
- TGI (SNB-19 CNS): 21.6 µM
- GI50 (SNB-75 CNS): 3.1 µM
- TGI (SNB-75 CNS): 14.3 µM
- GI50 (SR leukemia): 1.95 µM
- TGI (SR leukemia): 4.79 µM
- GI50 (SW-620 colon): 1.85 µM
- TGI (SW-620 colon): 3.77 µM
- GI50 (T-47D breast): 3.2 µM
- TGI (T-47D breast): 11.5 µM
- GI50 (TK-10 renal): 3.64 µM
- TGI (TK-10 renal): 15.3 µM
- GI50 (U251 CNS): 1.6 µM
- TGI (U251 CNS): 3.24 µM
- GI50 (UACC-257 melanoma): 2.98 µM
- TGI (UACC-257 melanoma): 12 µM
- GI50 (UACC-62 melanoma): 2.47 µM
- TGI (UACC-62 melanoma): 7.06 µM
- GI50 (UO-31 renal): 1.54 µM
- TGI (UO-31 renal): 3.77 µM
